In PubChem BioAssay (NCI):
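Grown in 96-well plates, cells were treated for 48 hours with each compound at five concentrations. Insufficient inhibition: endpoint recorded as highest concentration tested. TGI: total growth inhibition.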

Assays:
Test in all cases: DTP human tumour cell line panel, 48 h
SF-268 CNS = test system: SF-268 CNS
HL-60(TB) leukemia = test system: HL-60(TB) leukemia
RXF 393 renal = test system: RXF 393 renal
IGROV1 ovarian = test system: IGROV1 ovarian
TK-10 renal = test system: TK-10 renal
DMS 114 small cell lung = test system: DMS 114 small cell lung
CCRF-CEM leukemia = test system: CCRF-CEM leukemia
HCT-116 colon = test system: HCT-116 colon
EKVX NSCLC = test system: EKVX NSCLC
HOP-92 NSCLC = test system: HOP-92 NSCLC
OVCAR-5 ovarian = test system: OVCAR-5 ovarian
SNB-78 CNS = test system: SNB-78 CNS
RXF-631 renal = test system: RXF-631 renal
NCI-H23 lung = test system: NCI-H23 lung
SR leukemia = test system: SR leukemia
SK-OV-3 ovarian = test system: SK-OV-3 ovarian
A549 NSCLC = test system: A549 NSCLC
SNB-19 CNS = test system: SNB-19 CNS
MOLT-4 leukemia = test system: MOLT-4 leukemia
U251 CNS = test system: U251 CNS
ACHN renal = test system: ACHN renal
UACC-62 melanoma = test system: UACC-62 melanoma
SK-MEL-28 melanoma = test system: SK-MEL-28 melanoma
UO-31 renal = test system: UO-31 renal
KM12 colon = test system: KM12 colon
NCI-H522 lung = test system: NCI-H522 lung
RPMI-8226 leukemia = test system: RPMI-8226 leukemia
HOP-18 NSCLC = test system: HOP-18 NSCLC
A498 renal = test system: A498 renal
OVCAR-4 ovarian = test system: OVCAR-4 ovarian
DLD-1 colon = test system: DLD-1 colon
OVCAR-3 ovarian = test system: OVCAR-3 ovarian
COLO 205 colon = test system: COLO 205 colon
SN12C renal = test system: SN12C renal
SW-620 colon = test system: SW-620 colon
M14 melanoma = test system: M14 melanoma
786-0 renal = test system: 786-0 renal
LOX IMVI melanoma = test system: LOX IMVI melanoma
M19-MEL melanoma = test system: M19-MEL melanoma
UACC-257 melanoma = test system: UACC-257 melanoma
MALME-3M melanoma = test system: MALME-3M melanoma
KM20L2 colon = test system: KM20L2 colon
DMS 273 small cell lung = test system: DMS 273 small cell lung
SF-539 CNS = test system: SF-539 CNS
LXFL 529 NSCLC = test system: LXFL 529 NSCLC
OVCAR-8 ovarian = test system: OVCAR-8 ovarian
SK-MEL-2 melanoma = test system: SK-MEL-2 melanoma
NCI-H460 lung = test system: NCI-H460 lung
SNB-75 CNS = test system: SNB-75 CNS
HT29 colon = test system: HT29 colon
SF-295 CNS = test system: SF-295 CNS
HOP-62 NSCLC = test system: HOP-62 NSCLC
HCC-2998 colon = test system: HCC-2998 colon
HCT-15 colon = test system: HCT-15 colon
CAKI-1 renal = test system: CAKI-1 renal
K-562 leukemia = test system: K-562 leukemia
SK-MEL-5 melanoma = test system: SK-MEL-5 melanoma
NCI-H226 lung = test system: NCI-H226 lung

C=CC1C2=C(C(=O)NCC2)C2OC(O)C3=C(CCNC3=O)C2C1C (stereo not given)
TGI (SF-268 CNS): > 100 µM | TGI (HL-60(TB) leukemia): > 100 µM | TGI (RXF 393 renal): > 100 µM | TGI (IGROV1 ovarian): > 100 µM | TGI (TK-10 renal): > 100 µM | TGI (DMS 114 small cell lung): > 100 µM | TGI (CCRF-CEM leukemia): > 100 µM | TGI (HCT-116 colon): > 100 µM | TGI (EKVX NSCLC): > 100 µM | TGI (HOP-92 NSCLC): > 100 µM | TGI (OVCAR-5 ovarian): > 100 µM | TGI (SNB-78 CNS): > 100 µM | TGI (RXF-631 renal): > 100 µM | TGI (NCI-H23 lung): > 100 µM | TGI (SR leukemia): > 100 µM | TGI (SK-OV-3 ovarian): > 100 µM | TGI (A549 NSCLC): > 100 µM | TGI (SNB-19 CNS): > 100 µM | TGI (MOLT-4 leukemia): > 100 µM | TGI (U251 CNS): > 100 µM | TGI (ACHN renal): > 100 µM | TGI (UACC-62 melanoma): > 100 µM | TGI (SK-MEL-28 melanoma): > 100 µM | TGI (UO-31 renal): > 100 µM | TGI (KM12 colon): > 100 µM | TGI (NCI-H522 lung): > 100 µM

COc1ccc(/C=C2/CCCC/C2=N/O)cc1
TGI (SF-268 CNS): > 100 µM | TGI (RPMI-8226 leukemia): > 100 µM | TGI (HOP-18 NSCLC): > 100 µM | TGI (A498 renal): > 100 µM | TGI (HL-60(TB) leukemia): > 100 µM | TGI (OVCAR-4 ovarian): > 100 µM | TGI (RXF 393 renal): > 100 µM | TGI (DLD-1 colon): > 100 µM | TGI (OVCAR-3 ovarian): > 100 µM | TGI (IGROV1 ovarian): > 100 µM | TGI (COLO 205 colon): > 100 µM | TGI (SN12C renal): > 100 µM | TGI (SW-620 colon): > 100 µM | TGI (M14 melanoma): > 100 µM | TGI (TK-10 renal): > 100 µM | TGI (786-0 renal): > 100 µM | TGI (LOX IMVI melanoma): > 100 µM | TGI (M19-MEL melanoma): > 100 µM | TGI (UACC-257 melanoma): > 100 µM | TGI (DMS 114 small cell lung): > 100 µM | TGI (CCRF-CEM leukemia): > 100 µM | TGI (MALME-3M melanoma): > 100 µM | TGI (HCT-116 colon): > 100 µM | TGI (KM20L2 colon): > 100 µM | TGI (EKVX NSCLC): > 100 µM | TGI (DMS 273 small cell lung): > 100 µM | TGI (SF-539 CNS): > 100 µM | TGI (HOP-92 NSCLC): > 100 µM | TGI (LXFL 529 NSCLC): > 100 µM | TGI (OVCAR-8 ovarian): > 100 µM | TGI (OVCAR-5 ovarian): > 100 µM | TGI (SK-MEL-2 melanoma): > 100 µM | TGI (NCI-H460 lung): > 100 µM | TGI (SNB-78 CNS): > 100 µM | TGI (RXF-631 renal): > 100 µM | TGI (SNB-75 CNS): > 100 µM | TGI (NCI-H23 lung): > 100 µM | TGI (SK-OV-3 ovarian): > 100 µM | TGI (HT29 colon): > 100 µM | TGI (A549 NSCLC): > 100 µM | TGI (SNB-19 CNS): > 100 µM | TGI (MOLT-4 leukemia): > 100 µM | TGI (U251 CNS): > 100 µM | TGI (SF-295 CNS): > 100 µM | TGI (HOP-62 NSCLC): > 100 µM | TGI (HCC-2998 colon): > 100 µM | TGI (ACHN renal): > 100 µM | TGI (UACC-62 melanoma): > 100 µM | TGI (SK-MEL-28 melanoma): > 100 µM | TGI (HCT-15 colon): > 100 µM | TGI (UO-31 renal): > 100 µM | TGI (KM12 colon): > 100 µM | TGI (NCI-H522 lung): > 100 µM

CCOC(=O)c1ncoc1[C@H]1COC(C)(C)O1
TGI (CAKI-1 renal): > 100 µM | TGI (SF-268 CNS): > 100 µM | TGI (RPMI-8226 leukemia): > 100 µM | TGI (HOP-18 NSCLC): > 100 µM | TGI (HL-60(TB) leukemia): > 100 µM | TGI (K-562 leukemia): > 100 µM | TGI (OVCAR-4 ovarian): > 100 µM | TGI (RXF 393 renal): > 100 µM | TGI (DLD-1 colon): > 100 µM | TGI (OVCAR-3 ovarian): > 100 µM | TGI (SK-MEL-5 melanoma): > 100 µM | TGI (IGROV1 ovarian): > 100 µM | TGI (SN12C renal): > 100 µM | TGI (SW-620 colon): > 100 µM | TGI (M14 melanoma): > 100 µM | TGI (TK-10 renal): > 100 µM | TGI (LOX IMVI melanoma): > 100 µM | TGI (M19-MEL melanoma): > 100 µM | TGI (UACC-257 melanoma): > 100 µM | TGI (DMS 114 small cell lung): > 100 µM | TGI (CCRF-CEM leukemia): > 100 µM | TGI (MALME-3M melanoma): > 100 µM | TGI (HCT-116 colon): > 100 µM | TGI (KM20L2 colon): > 100 µM | TGI (EKVX NSCLC): > 100 µM | TGI (DMS 273 small cell lung): > 100 µM | TGI (SF-539 CNS): > 100 µM | TGI (LXFL 529 NSCLC): > 100 µM | TGI (OVCAR-8 ovarian): > 100 µM | TGI (OVCAR-5 ovarian): > 100 µM | TGI (SK-MEL-2 melanoma): > 100 µM | TGI (NCI-H460 lung): > 100 µM | TGI (SNB-78 CNS): > 100 µM | TGI (RXF-631 renal): > 100 µM | TGI (SNB-75 CNS): > 100 µM | TGI (NCI-H23 lung): > 100 µM | TGI (SR leukemia): > 100 µM | TGI (SK-OV-3 ovarian): > 100 µM | TGI (HT29 colon): > 100 µM | TGI (A549 NSCLC): > 100 µM | TGI (SNB-19 CNS): > 100 µM | TGI (MOLT-4 leukemia): > 100 µM | TGI (U251 CNS): > 100 µM | TGI (SF-295 CNS): > 100 µM | TGI (HOP-62 NSCLC): > 100 µM | TGI (HCC-2998 colon): > 100 µM | TGI (ACHN renal): > 100 µM | TGI (UACC-62 melanoma): > 100 µM | TGI (NCI-H226 lung): > 100 µM | TGI (HCT-15 colon): > 100 µM | TGI (UO-31 renal): > 100 µM | TGI (NCI-H522 lung): > 100 µM

S=c1[nH]nc(COc2ccc(Cl)cc2)o1
TGI (CAKI-1 renal): > 100 µM | TGI (SF-268 CNS): > 100 µM | TGI (RPMI-8226 leukemia): > 100 µM | TGI (HOP-18 NSCLC): > 100 µM | TGI (A498 renal): > 100 µM | TGI (HL-60(TB) leukemia): > 100 µM | TGI (K-562 leukemia): > 100 µM | TGI (OVCAR-4 ovarian): > 100 µM | TGI (DLD-1 colon): > 100 µM | TGI (OVCAR-3 ovarian): > 100 µM | TGI (SK-MEL-5 melanoma): > 100 µM | TGI (IGROV1 ovarian): > 100 µM | TGI (COLO 205 colon): > 100 µM | TGI (SN12C renal): > 100 µM | TGI (SW-620 colon): 29.8 µM | TGI (M14 melanoma): > 100 µM | TGI (TK-10 renal): > 100 µM | TGI (786-0 renal): > 100 µM | TGI (M19-MEL melanoma): > 100 µM | TGI (UACC-257 melanoma): > 100 µM | TGI (DMS 114 small cell lung): > 100 µM | TGI (CCRF-CEM leukemia): > 100 µM | TGI (MALME-3M melanoma): > 100 µM | TGI (HCT-116 colon): > 100 µM | TGI (KM20L2 colon): > 100 µM | TGI (EKVX NSCLC): > 100 µM | TGI (DMS 273 small cell lung): > 100 µM | TGI (SF-539 CNS): > 100 µM | TGI (HOP-92 NSCLC): > 100 µM | TGI (LXFL 529 NSCLC): > 100 µM | TGI (OVCAR-8 ovarian): > 100 µM | TGI (OVCAR-5 ovarian): > 100 µM | TGI (NCI-H460 lung): > 100 µM | TGI (SNB-78 CNS): > 100 µM | TGI (RXF-631 renal): > 100 µM | TGI (SNB-75 CNS): > 100 µM | TGI (NCI-H23 lung): > 100 µM | TGI (SK-OV-3 ovarian): > 100 µM | TGI (HT29 colon): > 100 µM | TGI (A549 NSCLC): > 100 µM | TGI (SNB-19 CNS): > 100 µM | TGI (MOLT-4 leukemia): > 100 µM | TGI (U251 CNS): > 100 µM | TGI (SF-295 CNS): > 100 µM | TGI (HOP-62 NSCLC): > 100 µM | TGI (HCC-2998 colon): > 100 µM | TGI (ACHN renal): > 100 µM | TGI (UACC-62 melanoma): > 100 µM | TGI (NCI-H226 lung): > 100 µM | TGI (SK-MEL-28 melanoma): > 100 µM | TGI (HCT-15 colon): 98.6 µM | TGI (UO-31 renal): > 100 µM | TGI (KM12 colon): > 100 µM | TGI (NCI-H522 lung): > 100 µM
